Test results reported in article PMC5701947, “β1-Adrenergic Receptor Contains Multiple IA^k and IE^k Binding Epitopes That Induce T Cell Responses with Varying Degrees of Autoimmune Myocarditis in A/J Mice” (Frontiers in Immunology, 2017).

System: T cells (lymph node cells/splenocytes from immunized animals)
Assay: T cell proliferation assay ([3H]-thymidine)
Type: cell-based, A/J mice
Conditions: 10 μg/ml; animals immunized with pool I; fold vs medium control
Method: At termination, lymph nodes (maxillary, mandibular, axillary, inguinal, and popliteal) and spleens were harvested from immunized animals to prepare single cell suspensions. Similarly, splenocytes were prepared from naive animals. After lysing the erythrocytes and washing, cell pellets were suspended in RPMI medium containing 10% fetal bovine serum, 1 mM sodium pyruvate, 4 mM L-glutamine, 1 × each of non-essential amino acids and vitamin mixture, and 100 U/ml penicillin–streptomycin (Lonza, Walkersville, MD, USA; hereafter called growth medium). In some experiments, CD4 T cells and CD8 T cells were enriched to a purity of ~95% by negative selection based on magnetic separation using IMAG (BD Biosciences, San Jose, CA, USA) ([31]). To stimulate CD4 and CD8 T cells, syngeneic naive irradiated splenocytes loaded with peptides were used as antigen-presenting cells at a ratio of 1:1. Cells were stimulated at a density of ~5 × 10^6 cells/ml in triplicates with or without the immunizing peptides (0–100 µg/ml) in growth medium. RNase 43–56 or HEL 46–61 were used as irrelevant controls. After 2 days, cells were pulsed with tritiated ^3[H]-thymidine (1 μCi/well; MP Biomedicals, Santa Ana, CA, USA), and 16 h later, proliferative responses were measured as counts per minute (cpm) using a Wallac liquid scintillation counter (Perkin Elmer, Waltham, MA, USA) ([26], [28], [30]).

Substance	T cell responses [fold]
β1AR 1-20: 20-mer of mouse β1AR peptide library (MGAGALALGASEPCNLSSAA; UniProt P34971 1-20, looked up, fragment)	1.52
β1AR 11-30: 20-mer of mouse β1AR peptide library (SEPCNLSSAAPLPDGAATAA; UniProt P34971 11-30, looked up, fragment)	1.84
β1AR 21-40: 20-mer of mouse β1AR peptide library (PLPDGAATAARLLVLASPPA; UniProt P34971 21-40, looked up, fragment)	1.33
β1AR 31-50: 20-mer of mouse β1AR peptide library (RLLVLASPPASLLPPASEGS; UniProt P34971 31-50, looked up, fragment)	0.97
β1AR 41-60: 20-mer of mouse β1AR peptide library (SLLPPASEGSAPLSQQWTAG; UniProt P34971 41-60, looked up, fragment)	0.84

Same assay, conditions: 10 μg/ml; animals immunized with pool II; fold vs medium control

Substance	T cell responses [fold]
BAR 101-120: 20-mer of mouse β1AR peptide library (ASADLVMGLLVVPFGATIVV; UniProt P34971 101-120, looked up, fragment)	1.01
β1AR 51-70: 20-mer of mouse β1AR peptide library (APLSQQWTAGMGLLLALIVL; UniProt P34971 51-70, looked up, fragment)	1.10
β1AR 71-90: 20-mer of mouse β1AR peptide library (LIVVGNVLVIVAIAKTPRLQ; UniProt P34971 71-90, looked up, fragment)	2.71
β1AR 81-100: 20-mer of mouse β1AR peptide library (VAIAKTPRLQTLTNLFIMSL; UniProt P34971 81-100, looked up, fragment)	1.65
β1AR 91-110: 20-mer of mouse β1AR peptide library (TLTNLFIMSLASADLVMGLL; UniProt P34971 91-110, looked up, fragment)	1.67

Same assay, conditions: 10 μg/ml; animals immunized with pool III; fold vs medium control

Substance	T cell responses [fold]
β1AR 111-130: 20-mer of mouse β1AR peptide library (VVPFGATIVVWGRWEYGSFF; UniProt P34971 111-130, looked up, fragment)	1.97
β1AR 121-140: 20-mer of mouse β1AR peptide library (WGRWEYGSFFCELWTSVDVL; UniProt P34971 121-140, looked up, fragment)	1.08
β1AR 131-150: 20-mer of mouse β1AR peptide library (CELWTSVDVLCVTASIETLC; UniProt P34971 131-150, looked up, fragment)	1.28
β1AR 151-170: 20-mer of mouse β1AR peptide library (VIALDRYLAITSPFRYQSLL; UniProt P34971 151-170, looked up, fragment)	2.24
β1AR 161-180: 20-mer of mouse β1AR peptide library (TSPFRYQSLLTRARARALVC; UniProt P34971 161-180, looked up, fragment)	1.03

Same assay, conditions: 10 μg/ml; animals immunized with pool IX; fold vs medium control

Substance	T cell responses [fold]
β1AR 421-440: 20-mer of mouse β1AR peptide library (DDDAGTTPPARLLEPWTGCN; UniProt P34971 421-440, looked up, fragment)	1.12

Same assay, conditions: 10 μg/ml; animals immunized with pool V; fold vs medium control

Substance	T cell responses [fold]
β1AR 221-240: 20-mer of mouse β1AR peptide library (NRAYAIASSVVSFYVPLCIM; UniProt P34971 221-240, looked up, fragment)	1.18

Same assay, conditions: 100 μg/ml; animals immunized with pool I; fold vs medium control

Substance	T cell responses [fold]
β1AR 1-20: 20-mer of mouse β1AR peptide library (MGAGALALGASEPCNLSSAA; UniProt P34971 1-20, looked up, fragment)	1.90
β1AR 11-30: 20-mer of mouse β1AR peptide library (SEPCNLSSAAPLPDGAATAA; UniProt P34971 11-30, looked up, fragment)	2.06
β1AR 21-40: 20-mer of mouse β1AR peptide library (PLPDGAATAARLLVLASPPA; UniProt P34971 21-40, looked up, fragment)	1.43
β1AR 31-50: 20-mer of mouse β1AR peptide library (RLLVLASPPASLLPPASEGS; UniProt P34971 31-50, looked up, fragment)	1.30
β1AR 41-60: 20-mer of mouse β1AR peptide library (SLLPPASEGSAPLSQQWTAG; UniProt P34971 41-60, looked up, fragment)	1.10

Same assay, conditions: 100 μg/ml; animals immunized with pool II; fold vs medium control

Substance	T cell responses [fold]
BAR 101-120: 20-mer of mouse β1AR peptide library (ASADLVMGLLVVPFGATIVV; UniProt P34971 101-120, looked up, fragment)	1.02
β1AR 51-70: 20-mer of mouse β1AR peptide library (APLSQQWTAGMGLLLALIVL; UniProt P34971 51-70, looked up, fragment)	1.38
β1AR 71-90: 20-mer of mouse β1AR peptide library (LIVVGNVLVIVAIAKTPRLQ; UniProt P34971 71-90, looked up, fragment)	3.78
β1AR 81-100: 20-mer of mouse β1AR peptide library (VAIAKTPRLQTLTNLFIMSL; UniProt P34971 81-100, looked up, fragment)	2.36
β1AR 91-110: 20-mer of mouse β1AR peptide library (TLTNLFIMSLASADLVMGLL; UniProt P34971 91-110, looked up, fragment)	1.93

Same assay, conditions: 100 μg/ml; animals immunized with pool III; fold vs medium control

Substance	T cell responses [fold]
β1AR 111-130: 20-mer of mouse β1AR peptide library (VVPFGATIVVWGRWEYGSFF; UniProt P34971 111-130, looked up, fragment)	2.49
β1AR 121-140: 20-mer of mouse β1AR peptide library (WGRWEYGSFFCELWTSVDVL; UniProt P34971 121-140, looked up, fragment)	1.26
β1AR 131-150: 20-mer of mouse β1AR peptide library (CELWTSVDVLCVTASIETLC; UniProt P34971 131-150, looked up, fragment)	1.72
β1AR 151-170: 20-mer of mouse β1AR peptide library (VIALDRYLAITSPFRYQSLL; UniProt P34971 151-170, looked up, fragment)	2.43
β1AR 161-180: 20-mer of mouse β1AR peptide library (TSPFRYQSLLTRARARALVC; UniProt P34971 161-180, looked up, fragment)	1.29

Same assay, conditions: 100 μg/ml; animals immunized with pool IX; fold vs medium control

Substance	T cell responses [fold]
β1AR 421-440: 20-mer of mouse β1AR peptide library (DDDAGTTPPARLLEPWTGCN; UniProt P34971 421-440, looked up, fragment)	1.21

Same assay, conditions: 100 μg/ml; animals immunized with pool V; fold vs medium control

Substance	T cell responses [fold]
β1AR 221-240: 20-mer of mouse β1AR peptide library (NRAYAIASSVVSFYVPLCIM; UniProt P34971 221-240, looked up, fragment)	1.01
